Patent US11400038B2, “Synergistic antioxidant compositions” (RODAN & FIELDS, LLC, priority 2019, dated 2022)

How the values were obtained:
Adult human fibroblasts = assay: Phototoxicity (PHTX): cell viability pre- and post-UVA irradiation by MTT assay (Test Method B); format: cell-based; settings: for cell metabolism versus solvent control, in words: UV-irradiation assay, individual antioxidants; for PHTX Results: phototoxicity: individual antioxidant
Description: The cell viability was measured by determining the cells metabolic activity with a MTT assay according to Test Method B, the results are presented in Table 5. An MTT assay is a colorimetric assay for assessing cell metabolic activity.
Adult human fibroblasts were grown to exponential stage in a 96-well plate in DMEM and 10% FBS in humidified atmosphere, 37° C. in 5% CO2. Prior to irradiation, half of cell culture medium was replaced with PBS, treated with 0.1% test material (diluted in double distilled water), and incubated for an additional 1 hour 45 minutes. Following incubation, half of the plate was irradiated with UVA lamp UVA-28T at 5 mW/cm2 for 12 minutes, and the other half remained covered with aluminum foil. Following irradiation, PBS with test materials was replaced by fresh cell culture medium and plate was incubated for an additional 24 hours. Cell viability was then analyzed via MTT assay to quantify metabolic activity.

[1] = system: UVA-induced Reactive Oxygen Species in Human Dermal Fibroblasts; assay: DCFH reactive oxygen species quantification in UVA-irradiated fibroblasts (Test Method C); format: cell-based; settings: individual antioxidant, + pro-oxidant
Description: Compositions of Ex1-Ex8 have been tested for reactive oxygen species quantification in UVA-irradiated human dermal fibroblasts. The quantification result is expressed as a percentage of the water control and determined by the Test Method C and resented in Table 6.
Adult human fibroblasts were grown in a 96 well plate in DMEM+5% FBS. At exponential growth stage, medium was replaced with PBS and cells were loaded with 10 μM DCFH-DA (2′-7′-Dichlorofluorescin diacetate). Cells were incubated for 15 minutes at 37° C., rinsed, and incubated with test materials at 1 mg/ml (0.1% w/w) for an additional 20 minutes. Following incubation, plate was irradiated at 5 mW/cm2 for 10 minutes. Measurements of DCF-originated fluorescence were taken before and after irradiation as, in the presence of free radicals, DCFH is oxidized to highly fluorescent DCF, which can be detected in living cells at ex/em 488/530 nm. Total insoluble proteins were quantified to determine effect of test materials on cell number and to standardize ROS signal to cell number using the following equation: [ΔROS signal (t10 min−t0)]\[cell number (background−corrected)]. Water was used as a negative control.

SMILES	cell metabolism versus solvent control, in words (Adult human fibroblasts)	PHTX Results: phototoxicity (Adult human fibroblasts)	DCFH Results (intracellular antioxidant): radical activity [1]
O=C(/C=C/c1ccc(O)c(O)c1)O[C@H](Cc1ccc(O)c(O)c1)C(=O)O [Rosmarinic acid, (2R)-3-(3,4-dihydroxyphenyl)-2-{[(2E)-3-(3,4-dihydroxyphenyl)prop-2-enoyl]oxy}propanoic acid]	lower cell metabolism than solvent control	not phototoxic	−52% radical
C[C@@H]1O[C@@H](OC[C@H]2O[C@@H](Oc3c(-c4ccc(O)c(O)c4)oc4cc(O)cc(O)c4c3=O)[C@H](O)[C@@H](O)[C@@H]2O)[C@H](O)[C@H](O)[C@H]1O [Rutin, 2-(3,4-dihydroxyphenyl)-5,7-dihydroxy-3-[α-L-rhamnopyranosyl-(1→6)-β-D-glucopyranosyloxy]-4H-chromen-4-one]	lower cell metabolism than solvent control	not phototoxic	No Activity
